Experimental data as given in the kinase profiling compilation of Christmann-Franck et al. (2016).

Legend:
Assay in all cases: KINOMEscan competition binding
Details in all cases: compound 10.0 µM
MST1R (human) = MST1R (human) (UniProt Q04912)
CHUK (human) = CHUK (human) (UniProt O15111)
MAPK12 (human) = MAPK12 (human) (UniProt P53778)
MAPK1 (human) = MAPK1 (human) (UniProt P28482)
CDC2L2 (human) = CDC2L2 (human) (UniProt Q9UQ88)
TNK2 (human) = TNK2 (human) (UniProt Q07912)
MAPK11 (human) = MAPK11 (human) (UniProt Q15759)
ZAP70 (human) = ZAP70 (human) (UniProt P43403)
MINK1 (human) = MINK1 (human) (UniProt Q8N4C8)
PAK7 (human) = PAK7 (human) (UniProt Q9P286)
STK32C (human) = STK32C (human) (UniProt Q86UX6)
DCLK3 (human) = DCLK3 (human) (UniProt Q9C098)
PAK3 (human) = PAK3 (human) (UniProt O75914)
PHKG2 (human) = PHKG2 (human) (UniProt P15735)
MYLK2 (human) = MYLK2 (human) (UniProt Q9H1R3)
CHEK1 (human) = CHEK1 (human) (UniProt O14757)
SRMS (human) = SRMS (human) (UniProt Q9H3Y6)
SRPK2 (human) = SRPK2 (human) (UniProt P78362)
EPHA1 (human) = EPHA1 (human) (UniProt P21709)
INSRR (human) = INSRR (human) (UniProt P14616)
MAPK10 (human) = MAPK10 (human) (UniProt P53779)
IGF1R (human) = IGF1R (human) (UniProt P08069)
PRKAA1 (human) = PRKAA1 (human) (UniProt Q13131)
TNIK (human) = TNIK (human) (UniProt Q9UKE5)
LTK (human) = LTK (human) (UniProt P29376)
PIM3 (human) = PIM3 (human) (UniProt Q86V86)
MLTK (human) = MLTK (human) (UniProt Q9NYL2)
MAPK8 (human) = MAPK8 (human) (UniProt P45983)
ADCK4 (human) = ADCK4 (human) (UniProt Q96D53)
CAMK4 (human) = CAMK4 (human) (UniProt Q16566)
HCK (human) = HCK (human) (UniProt P08631)
FLT4 (human) = FLT4 (human) (UniProt P35916)
CAMK2D (human) = CAMK2D (human) (UniProt Q13557)
TAOK1 (human) = TAOK1 (human) (UniProt Q7L7X3)
AURKA (human) = AURKA (human) (UniProt O14965)
PTK2B (human) = PTK2B (human) (UniProt Q14289)
CSNK1A1L (human) = CSNK1A1L (human) (UniProt Q8N752)
MAP4K4 (human) = MAP4K4 (human) (UniProt O95819)
PTK6 (human) = PTK6 (human) (UniProt Q13882)
STK17B (human) = STK17B (human) (UniProt O94768)

PTK6 (human), sequence (Q13882 whole entry, looked up): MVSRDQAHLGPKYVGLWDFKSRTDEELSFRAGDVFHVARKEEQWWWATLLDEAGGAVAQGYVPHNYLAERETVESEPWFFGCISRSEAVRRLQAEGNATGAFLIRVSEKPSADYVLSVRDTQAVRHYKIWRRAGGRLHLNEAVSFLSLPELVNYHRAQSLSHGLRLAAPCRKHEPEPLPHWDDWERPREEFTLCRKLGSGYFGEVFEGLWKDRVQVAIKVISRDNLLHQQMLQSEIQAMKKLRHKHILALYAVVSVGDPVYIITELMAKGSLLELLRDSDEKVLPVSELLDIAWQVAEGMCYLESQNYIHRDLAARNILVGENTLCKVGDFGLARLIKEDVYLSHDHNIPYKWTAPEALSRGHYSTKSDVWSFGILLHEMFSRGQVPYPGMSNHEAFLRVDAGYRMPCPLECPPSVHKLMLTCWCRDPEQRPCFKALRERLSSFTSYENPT
MAP4K4 (human), sequence (O95819 whole entry, looked up): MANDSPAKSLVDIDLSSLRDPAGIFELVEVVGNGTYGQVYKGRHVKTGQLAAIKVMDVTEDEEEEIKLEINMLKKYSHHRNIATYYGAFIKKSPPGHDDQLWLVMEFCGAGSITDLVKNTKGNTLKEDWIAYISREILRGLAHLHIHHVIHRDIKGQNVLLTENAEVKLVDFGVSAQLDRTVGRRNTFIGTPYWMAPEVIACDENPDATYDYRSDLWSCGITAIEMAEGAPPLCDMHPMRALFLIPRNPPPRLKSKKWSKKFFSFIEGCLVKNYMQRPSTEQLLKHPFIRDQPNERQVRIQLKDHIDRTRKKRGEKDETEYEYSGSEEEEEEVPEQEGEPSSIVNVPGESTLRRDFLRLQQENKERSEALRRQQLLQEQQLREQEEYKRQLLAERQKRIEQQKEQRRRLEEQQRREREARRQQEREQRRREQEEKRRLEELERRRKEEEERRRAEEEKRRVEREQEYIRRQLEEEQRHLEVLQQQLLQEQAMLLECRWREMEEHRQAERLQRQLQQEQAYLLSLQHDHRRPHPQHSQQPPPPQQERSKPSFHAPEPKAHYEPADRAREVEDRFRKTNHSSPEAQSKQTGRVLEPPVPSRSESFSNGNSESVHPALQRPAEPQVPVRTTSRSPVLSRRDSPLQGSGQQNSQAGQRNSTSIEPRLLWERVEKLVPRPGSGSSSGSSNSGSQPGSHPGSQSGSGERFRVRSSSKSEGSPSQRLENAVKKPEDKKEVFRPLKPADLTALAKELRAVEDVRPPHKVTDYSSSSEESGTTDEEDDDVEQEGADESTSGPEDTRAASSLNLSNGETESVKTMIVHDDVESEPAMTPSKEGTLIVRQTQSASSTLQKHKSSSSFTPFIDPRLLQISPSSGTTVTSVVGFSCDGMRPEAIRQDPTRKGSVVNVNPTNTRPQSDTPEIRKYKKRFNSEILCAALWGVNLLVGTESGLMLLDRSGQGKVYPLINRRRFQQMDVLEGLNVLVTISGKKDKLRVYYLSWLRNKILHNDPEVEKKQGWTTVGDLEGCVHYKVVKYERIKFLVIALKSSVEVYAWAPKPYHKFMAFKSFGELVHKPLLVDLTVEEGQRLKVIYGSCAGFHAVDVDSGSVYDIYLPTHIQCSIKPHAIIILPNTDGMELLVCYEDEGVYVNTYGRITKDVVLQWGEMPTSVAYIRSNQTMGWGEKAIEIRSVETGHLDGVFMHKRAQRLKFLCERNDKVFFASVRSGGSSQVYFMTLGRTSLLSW
CDC2L2 (human), sequence (Q9UQ88 whole entry, looked up): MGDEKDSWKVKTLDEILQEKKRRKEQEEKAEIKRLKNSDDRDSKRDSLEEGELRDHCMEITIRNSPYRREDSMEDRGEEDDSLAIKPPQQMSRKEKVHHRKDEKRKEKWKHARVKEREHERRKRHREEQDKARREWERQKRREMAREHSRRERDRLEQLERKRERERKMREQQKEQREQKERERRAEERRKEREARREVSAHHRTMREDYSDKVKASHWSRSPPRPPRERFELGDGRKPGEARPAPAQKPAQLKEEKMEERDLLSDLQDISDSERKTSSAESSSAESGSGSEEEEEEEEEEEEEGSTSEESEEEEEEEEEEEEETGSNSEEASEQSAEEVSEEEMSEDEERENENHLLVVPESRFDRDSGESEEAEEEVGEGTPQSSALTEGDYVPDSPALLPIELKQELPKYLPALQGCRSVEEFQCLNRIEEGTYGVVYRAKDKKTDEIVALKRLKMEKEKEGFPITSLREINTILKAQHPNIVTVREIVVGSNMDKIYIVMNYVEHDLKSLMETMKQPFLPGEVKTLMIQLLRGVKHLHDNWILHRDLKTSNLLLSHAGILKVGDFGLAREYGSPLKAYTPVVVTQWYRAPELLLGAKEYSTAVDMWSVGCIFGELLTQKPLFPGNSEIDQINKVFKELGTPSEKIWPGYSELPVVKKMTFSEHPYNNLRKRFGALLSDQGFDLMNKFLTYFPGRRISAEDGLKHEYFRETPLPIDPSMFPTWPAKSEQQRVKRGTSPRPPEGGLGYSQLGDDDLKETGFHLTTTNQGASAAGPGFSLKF
TAOK1 (human), sequence (Q7L7X3 whole entry, looked up): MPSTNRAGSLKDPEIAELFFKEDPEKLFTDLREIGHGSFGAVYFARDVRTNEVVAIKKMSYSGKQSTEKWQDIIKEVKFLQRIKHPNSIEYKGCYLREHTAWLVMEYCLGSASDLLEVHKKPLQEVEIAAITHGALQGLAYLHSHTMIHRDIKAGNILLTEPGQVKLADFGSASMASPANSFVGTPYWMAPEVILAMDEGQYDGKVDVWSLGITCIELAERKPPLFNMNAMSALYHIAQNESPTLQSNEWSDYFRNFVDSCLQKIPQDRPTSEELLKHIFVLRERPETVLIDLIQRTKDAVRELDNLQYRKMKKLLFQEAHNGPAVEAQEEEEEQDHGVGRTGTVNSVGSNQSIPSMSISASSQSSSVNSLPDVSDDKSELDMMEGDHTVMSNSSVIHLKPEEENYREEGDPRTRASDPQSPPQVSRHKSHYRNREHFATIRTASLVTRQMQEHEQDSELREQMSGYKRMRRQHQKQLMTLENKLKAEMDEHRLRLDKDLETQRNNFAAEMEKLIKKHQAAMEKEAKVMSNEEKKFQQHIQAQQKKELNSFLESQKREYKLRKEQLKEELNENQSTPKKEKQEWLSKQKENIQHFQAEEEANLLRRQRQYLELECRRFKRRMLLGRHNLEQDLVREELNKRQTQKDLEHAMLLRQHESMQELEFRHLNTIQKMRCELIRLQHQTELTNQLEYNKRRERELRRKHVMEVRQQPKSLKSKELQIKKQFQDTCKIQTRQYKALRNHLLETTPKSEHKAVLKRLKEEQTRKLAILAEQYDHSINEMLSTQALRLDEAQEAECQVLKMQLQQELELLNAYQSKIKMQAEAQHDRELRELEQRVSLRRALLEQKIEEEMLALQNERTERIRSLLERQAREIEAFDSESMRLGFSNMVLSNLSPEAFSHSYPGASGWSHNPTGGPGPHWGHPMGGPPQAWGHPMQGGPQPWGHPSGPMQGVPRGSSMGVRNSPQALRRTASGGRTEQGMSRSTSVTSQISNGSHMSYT
EPHA1 (human), sequence (P21709 whole entry, looked up): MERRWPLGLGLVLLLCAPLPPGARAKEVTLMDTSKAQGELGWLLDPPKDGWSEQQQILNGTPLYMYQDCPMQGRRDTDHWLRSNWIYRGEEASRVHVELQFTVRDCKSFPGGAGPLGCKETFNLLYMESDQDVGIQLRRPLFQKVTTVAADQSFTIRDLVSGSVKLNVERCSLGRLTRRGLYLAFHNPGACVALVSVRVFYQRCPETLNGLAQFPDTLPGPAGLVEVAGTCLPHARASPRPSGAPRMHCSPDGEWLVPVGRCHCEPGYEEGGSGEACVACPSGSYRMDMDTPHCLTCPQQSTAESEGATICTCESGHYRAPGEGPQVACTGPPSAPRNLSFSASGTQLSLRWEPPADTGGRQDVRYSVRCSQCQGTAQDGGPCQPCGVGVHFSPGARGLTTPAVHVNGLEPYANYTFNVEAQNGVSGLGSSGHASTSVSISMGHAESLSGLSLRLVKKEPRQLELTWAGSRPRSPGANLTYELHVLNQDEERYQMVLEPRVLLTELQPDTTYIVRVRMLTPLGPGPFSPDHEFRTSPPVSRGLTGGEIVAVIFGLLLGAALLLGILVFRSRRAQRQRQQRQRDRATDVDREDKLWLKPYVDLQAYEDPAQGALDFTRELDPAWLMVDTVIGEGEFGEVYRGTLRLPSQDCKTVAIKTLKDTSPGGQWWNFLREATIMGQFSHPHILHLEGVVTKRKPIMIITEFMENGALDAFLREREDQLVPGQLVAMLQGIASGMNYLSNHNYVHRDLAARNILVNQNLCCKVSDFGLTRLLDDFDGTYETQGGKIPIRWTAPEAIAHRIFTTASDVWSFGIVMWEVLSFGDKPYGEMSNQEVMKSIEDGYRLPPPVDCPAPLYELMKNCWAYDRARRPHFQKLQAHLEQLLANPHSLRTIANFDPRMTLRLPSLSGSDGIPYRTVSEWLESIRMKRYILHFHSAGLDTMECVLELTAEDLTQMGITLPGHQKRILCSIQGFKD
MAPK11 (human), sequence (Q15759 whole entry, looked up): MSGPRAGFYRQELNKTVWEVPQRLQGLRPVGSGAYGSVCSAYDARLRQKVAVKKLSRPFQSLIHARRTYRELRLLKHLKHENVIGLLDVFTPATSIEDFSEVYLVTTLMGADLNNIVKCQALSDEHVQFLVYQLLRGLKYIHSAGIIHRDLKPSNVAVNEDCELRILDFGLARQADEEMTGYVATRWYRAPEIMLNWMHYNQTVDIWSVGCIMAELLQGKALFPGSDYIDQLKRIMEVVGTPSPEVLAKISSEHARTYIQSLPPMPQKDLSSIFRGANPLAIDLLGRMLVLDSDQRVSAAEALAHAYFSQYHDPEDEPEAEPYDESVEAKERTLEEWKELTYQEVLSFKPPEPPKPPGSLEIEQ

SMILES: C=CC(=O)Nc1cc(NC(=O)c2ccc(C)c(NC(=O)c3ccno3)c2)cc(C(F)(F)F)c1
- kinase still bound, per cent of control (MST1R (human)): 99%
- kinase still bound, per cent of control (CHUK (human)): 100%
- kinase still bound, per cent of control (MAPK12 (human)): 96%
- kinase still bound, per cent of control (MAPK1 (human)): 100%
- kinase still bound, per cent of control (CDC2L2 (human)): 94%
- kinase still bound, per cent of control (TNK2 (human)): 84%
- kinase still bound, per cent of control (MAPK11 (human)): 4.8%
- kinase still bound, per cent of control (ZAP70 (human)): 54%
- kinase still bound, per cent of control (MINK1 (human)): 84%
- kinase still bound, per cent of control (PAK7 (human)): 94%
- kinase still bound, per cent of control (STK32C (human)): 100%
- kinase still bound, per cent of control (DCLK3 (human)): 100%
- kinase still bound, per cent of control (PAK3 (human)): 100%
- kinase still bound, per cent of control (PHKG2 (human)): 95%
- kinase still bound, per cent of control (MYLK2 (human)): 100%
- kinase still bound, per cent of control (CHEK1 (human)): 96%
- kinase still bound, per cent of control (SRMS (human)): 77%
- kinase still bound, per cent of control (SRPK2 (human)): 89%
- kinase still bound, per cent of control (EPHA1 (human)): 99%
- kinase still bound, per cent of control (INSRR (human)): 100%
- kinase still bound, per cent of control (MAPK10 (human)): 86%
- kinase still bound, per cent of control (IGF1R (human)): 63%
- kinase still bound, per cent of control (PRKAA1 (human)): 100%
- kinase still bound, per cent of control (TNIK (human)): 100%
- kinase still bound, per cent of control (LTK (human)): 89%
- kinase still bound, per cent of control (PIM3 (human)): 100%
- kinase still bound, per cent of control (MLTK (human)): 6%
- kinase still bound, per cent of control (MAPK8 (human)): 100%
- kinase still bound, per cent of control (ADCK4 (human)): 97%
- kinase still bound, per cent of control (CAMK4 (human)): 100%
- kinase still bound, per cent of control (HCK (human)): 60%
- kinase still bound, per cent of control (FLT4 (human)): 100%
- kinase still bound, per cent of control (CAMK2D (human)): 83%
- kinase still bound, per cent of control (TAOK1 (human)): 76%
- kinase still bound, per cent of control (AURKA (human)): 95%
- kinase still bound, per cent of control (PTK2B (human)): 91%
- kinase still bound, per cent of control (CSNK1A1L (human)): 90%
- kinase still bound, per cent of control (MAP4K4 (human)): 88%
- kinase still bound, per cent of control (PTK6 (human)): 100%
- kinase still bound, per cent of control (STK17B (human)): 89%
